Experiment in all cases: biochemical
Common to all, as to assay type: binding

In assay [1] the target is T1, panel of 442 kinases (Homo sapiens, UniProt P14616).
T1 construct: purchased Ambit Biosciences (scanMAXX KINOMEscan)
Particulars: kinase INSRR; for remaining activity at 1 µM: read-out: % of control at 1 µM.

In assay [2] the target is T2, panel of 442 kinases (Homo sapiens, UniProt Q9UQM7).
T2 construct: purchased Ambit Biosciences (scanMAXX KINOMEscan)
Particulars: CAMK2A; for remaining activity at 1 µM: read-out: % of control at 1 µM.

Assay [3] addresses T3, panel of 442 kinases (Homo sapiens, UniProt P00533, L861Q).
T3 construct: purchased Ambit Biosciences (scanMAXX KINOMEscan)
Particulars: EGFR(L861Q); for remaining activity at 1 µM: read-out: % of control at 1 µM.

Assay [4] has as its target T4, panel of 442 kinases (Homo sapiens, UniProt P24941).
T4 construct: purchased Ambit Biosciences (scanMAXX KINOMEscan)
Particulars: CDK2; for remaining activity at 1 µM: read-out: % of control at 1 µM.

For assay [5], the target named is T5, panel of 442 kinases (Homo sapiens, UniProt Q92630).
T5 construct: purchased Ambit Biosciences (scanMAXX KINOMEscan)
T5 sequence (Q92630 1-601): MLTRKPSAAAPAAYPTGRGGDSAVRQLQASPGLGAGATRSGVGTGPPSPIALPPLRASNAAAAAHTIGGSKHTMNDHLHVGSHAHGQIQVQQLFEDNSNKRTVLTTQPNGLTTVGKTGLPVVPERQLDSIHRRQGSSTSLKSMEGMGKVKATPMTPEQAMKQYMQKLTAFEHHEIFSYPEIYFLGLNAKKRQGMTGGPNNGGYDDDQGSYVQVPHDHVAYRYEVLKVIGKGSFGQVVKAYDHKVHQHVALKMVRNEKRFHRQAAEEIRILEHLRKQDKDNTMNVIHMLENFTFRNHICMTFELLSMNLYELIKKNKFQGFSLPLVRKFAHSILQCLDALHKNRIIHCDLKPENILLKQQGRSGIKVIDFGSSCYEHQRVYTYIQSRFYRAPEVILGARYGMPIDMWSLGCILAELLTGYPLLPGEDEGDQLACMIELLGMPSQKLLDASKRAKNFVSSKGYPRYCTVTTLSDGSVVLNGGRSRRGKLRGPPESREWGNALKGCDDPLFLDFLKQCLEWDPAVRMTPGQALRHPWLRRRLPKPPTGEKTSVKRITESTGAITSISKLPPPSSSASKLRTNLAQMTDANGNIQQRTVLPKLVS
Particulars: DYRK2; for remaining activity at 1 µM: read-out: % of control at 1 µM.

For assay [6], the target named is T6, panel of 442 kinases (Homo sapiens, UniProt Q9Y6E0).
T6 construct: purchased Ambit Biosciences (scanMAXX KINOMEscan)
Particulars: kinase MST3; for remaining activity at 1 µM: read-out: % of control at 1 µM.

In assay [7] the target is T7, panel of 442 kinases (Homo sapiens, UniProt P36888, R834Q).
T7 construct: purchased Ambit Biosciences (scanMAXX KINOMEscan)
T7 sequence (P36888 27-993 R834Q): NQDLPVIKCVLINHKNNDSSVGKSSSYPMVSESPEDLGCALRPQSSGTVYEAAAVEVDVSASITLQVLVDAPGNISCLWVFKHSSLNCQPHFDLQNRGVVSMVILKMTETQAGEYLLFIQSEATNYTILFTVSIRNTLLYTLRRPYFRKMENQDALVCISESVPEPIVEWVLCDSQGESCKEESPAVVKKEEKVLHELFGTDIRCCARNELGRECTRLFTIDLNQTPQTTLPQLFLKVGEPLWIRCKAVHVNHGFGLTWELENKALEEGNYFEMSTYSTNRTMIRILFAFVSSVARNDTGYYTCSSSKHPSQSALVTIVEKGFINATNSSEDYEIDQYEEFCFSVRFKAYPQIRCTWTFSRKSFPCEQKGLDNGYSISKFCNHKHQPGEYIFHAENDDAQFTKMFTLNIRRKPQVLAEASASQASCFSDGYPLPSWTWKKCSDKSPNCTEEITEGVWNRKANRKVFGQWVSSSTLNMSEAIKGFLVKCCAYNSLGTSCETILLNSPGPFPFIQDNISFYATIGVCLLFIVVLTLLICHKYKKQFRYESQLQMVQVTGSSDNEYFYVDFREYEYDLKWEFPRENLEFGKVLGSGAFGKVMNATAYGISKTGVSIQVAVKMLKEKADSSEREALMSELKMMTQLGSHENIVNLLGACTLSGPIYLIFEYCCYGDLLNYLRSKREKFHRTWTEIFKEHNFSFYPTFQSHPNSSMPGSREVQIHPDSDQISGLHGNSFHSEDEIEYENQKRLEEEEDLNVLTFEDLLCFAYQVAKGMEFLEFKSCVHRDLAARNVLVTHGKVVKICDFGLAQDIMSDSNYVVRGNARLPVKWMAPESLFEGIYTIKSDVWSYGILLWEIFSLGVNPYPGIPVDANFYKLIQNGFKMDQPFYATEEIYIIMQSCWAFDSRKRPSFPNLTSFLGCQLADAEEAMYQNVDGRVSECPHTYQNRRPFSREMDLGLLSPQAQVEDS
Particulars: kinase FLT3(R834Q); for remaining activity at 1 µM: read-out: % of control at 1 µM.

Assay [8] addresses T8, panel of 442 kinases (Homo sapiens, UniProt Q9BWU1).
T8 construct: purchased Ambit Biosciences (scanMAXX KINOMEscan)
Particulars: CDK11; for remaining activity at 1 µM: read-out: % of control at 1 µM.

The target of assay [9] is T9, panel of 442 kinases (Homo sapiens, UniProt P10721, T670I/V559D).
T9 construct: purchased Ambit Biosciences (scanMAXX KINOMEscan)
Particulars: kinase KIT(V559D,T670I); for remaining activity at 1 µM: read-out: % of control at 1 µM.

Assay [10] addresses T10, panel of 442 kinases (Homo sapiens, UniProt P27037).
T10 construct: purchased Ambit Biosciences (scanMAXX KINOMEscan)
Particulars: ACVR2A; for remaining activity at 1 µM: read-out: % of control at 1 µM.

In assay [11] the target is T11, panel of 442 kinases (Homo sapiens, UniProt Q13464).
T11 construct: purchased Ambit Biosciences (scanMAXX KINOMEscan)
Particulars: kinase ROCK1; for remaining activity at 1 µM: read-out: ROCK1 (% of control at 1 µM).

Assay [12] concerns the target T12, panel of 442 kinases (Homo sapiens, UniProt P23443).
T12 construct: purchased Ambit Biosciences (scanMAXX KINOMEscan)
Particulars: kinase S6K1; for remaining activity at 1 µM: read-out: S6K1 (% of control at 1 µM).

The mark [13] stands for this setting: 10 µM, read-out: % of control at 10 µM.

The structures appear in SMILES notation.

T10 sequence (P27037 20-513): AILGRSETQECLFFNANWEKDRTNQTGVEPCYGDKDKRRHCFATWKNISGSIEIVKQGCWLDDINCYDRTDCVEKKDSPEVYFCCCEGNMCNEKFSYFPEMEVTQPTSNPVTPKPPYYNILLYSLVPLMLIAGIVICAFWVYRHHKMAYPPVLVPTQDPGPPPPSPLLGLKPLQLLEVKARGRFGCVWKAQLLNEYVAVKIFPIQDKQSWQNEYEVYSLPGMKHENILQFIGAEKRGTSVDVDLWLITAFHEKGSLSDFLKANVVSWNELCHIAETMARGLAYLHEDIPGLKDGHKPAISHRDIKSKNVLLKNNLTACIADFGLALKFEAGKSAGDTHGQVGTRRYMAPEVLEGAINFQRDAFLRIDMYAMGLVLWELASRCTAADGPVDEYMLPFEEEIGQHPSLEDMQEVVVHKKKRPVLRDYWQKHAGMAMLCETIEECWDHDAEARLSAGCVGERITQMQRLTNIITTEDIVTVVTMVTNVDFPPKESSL
T1 sequence (P14616 27-1297): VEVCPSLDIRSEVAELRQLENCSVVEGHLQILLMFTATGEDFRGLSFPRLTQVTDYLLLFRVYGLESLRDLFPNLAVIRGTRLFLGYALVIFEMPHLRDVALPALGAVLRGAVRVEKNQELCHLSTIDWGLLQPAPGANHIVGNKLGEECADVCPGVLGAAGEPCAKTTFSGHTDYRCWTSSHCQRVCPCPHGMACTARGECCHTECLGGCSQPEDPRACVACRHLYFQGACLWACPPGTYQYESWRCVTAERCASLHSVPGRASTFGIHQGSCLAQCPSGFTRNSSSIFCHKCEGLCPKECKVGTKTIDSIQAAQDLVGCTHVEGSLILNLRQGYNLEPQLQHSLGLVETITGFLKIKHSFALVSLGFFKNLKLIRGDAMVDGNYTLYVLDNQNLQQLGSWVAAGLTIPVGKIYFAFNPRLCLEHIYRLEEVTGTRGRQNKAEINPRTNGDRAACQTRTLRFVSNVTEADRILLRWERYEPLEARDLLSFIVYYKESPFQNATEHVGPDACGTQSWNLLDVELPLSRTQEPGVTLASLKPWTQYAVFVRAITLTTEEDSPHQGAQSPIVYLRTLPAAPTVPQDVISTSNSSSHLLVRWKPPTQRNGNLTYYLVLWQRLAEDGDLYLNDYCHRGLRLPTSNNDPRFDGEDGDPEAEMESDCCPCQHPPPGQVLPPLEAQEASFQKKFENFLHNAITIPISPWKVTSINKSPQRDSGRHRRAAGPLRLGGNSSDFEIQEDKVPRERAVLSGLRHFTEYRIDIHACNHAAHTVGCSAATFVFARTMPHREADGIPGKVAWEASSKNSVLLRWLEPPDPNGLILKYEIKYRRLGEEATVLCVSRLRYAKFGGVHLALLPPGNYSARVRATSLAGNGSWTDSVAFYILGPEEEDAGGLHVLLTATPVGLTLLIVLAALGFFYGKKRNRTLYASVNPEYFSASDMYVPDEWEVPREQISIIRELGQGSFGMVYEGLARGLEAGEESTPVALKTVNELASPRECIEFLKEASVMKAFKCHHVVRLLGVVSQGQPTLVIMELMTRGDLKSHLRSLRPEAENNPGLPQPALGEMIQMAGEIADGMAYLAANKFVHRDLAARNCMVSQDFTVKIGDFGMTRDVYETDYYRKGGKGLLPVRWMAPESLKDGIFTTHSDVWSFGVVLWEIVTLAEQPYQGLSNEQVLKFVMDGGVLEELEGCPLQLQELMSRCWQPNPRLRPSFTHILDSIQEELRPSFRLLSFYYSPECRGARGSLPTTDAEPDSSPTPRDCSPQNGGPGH
T11 sequence (Q13464 whole entry): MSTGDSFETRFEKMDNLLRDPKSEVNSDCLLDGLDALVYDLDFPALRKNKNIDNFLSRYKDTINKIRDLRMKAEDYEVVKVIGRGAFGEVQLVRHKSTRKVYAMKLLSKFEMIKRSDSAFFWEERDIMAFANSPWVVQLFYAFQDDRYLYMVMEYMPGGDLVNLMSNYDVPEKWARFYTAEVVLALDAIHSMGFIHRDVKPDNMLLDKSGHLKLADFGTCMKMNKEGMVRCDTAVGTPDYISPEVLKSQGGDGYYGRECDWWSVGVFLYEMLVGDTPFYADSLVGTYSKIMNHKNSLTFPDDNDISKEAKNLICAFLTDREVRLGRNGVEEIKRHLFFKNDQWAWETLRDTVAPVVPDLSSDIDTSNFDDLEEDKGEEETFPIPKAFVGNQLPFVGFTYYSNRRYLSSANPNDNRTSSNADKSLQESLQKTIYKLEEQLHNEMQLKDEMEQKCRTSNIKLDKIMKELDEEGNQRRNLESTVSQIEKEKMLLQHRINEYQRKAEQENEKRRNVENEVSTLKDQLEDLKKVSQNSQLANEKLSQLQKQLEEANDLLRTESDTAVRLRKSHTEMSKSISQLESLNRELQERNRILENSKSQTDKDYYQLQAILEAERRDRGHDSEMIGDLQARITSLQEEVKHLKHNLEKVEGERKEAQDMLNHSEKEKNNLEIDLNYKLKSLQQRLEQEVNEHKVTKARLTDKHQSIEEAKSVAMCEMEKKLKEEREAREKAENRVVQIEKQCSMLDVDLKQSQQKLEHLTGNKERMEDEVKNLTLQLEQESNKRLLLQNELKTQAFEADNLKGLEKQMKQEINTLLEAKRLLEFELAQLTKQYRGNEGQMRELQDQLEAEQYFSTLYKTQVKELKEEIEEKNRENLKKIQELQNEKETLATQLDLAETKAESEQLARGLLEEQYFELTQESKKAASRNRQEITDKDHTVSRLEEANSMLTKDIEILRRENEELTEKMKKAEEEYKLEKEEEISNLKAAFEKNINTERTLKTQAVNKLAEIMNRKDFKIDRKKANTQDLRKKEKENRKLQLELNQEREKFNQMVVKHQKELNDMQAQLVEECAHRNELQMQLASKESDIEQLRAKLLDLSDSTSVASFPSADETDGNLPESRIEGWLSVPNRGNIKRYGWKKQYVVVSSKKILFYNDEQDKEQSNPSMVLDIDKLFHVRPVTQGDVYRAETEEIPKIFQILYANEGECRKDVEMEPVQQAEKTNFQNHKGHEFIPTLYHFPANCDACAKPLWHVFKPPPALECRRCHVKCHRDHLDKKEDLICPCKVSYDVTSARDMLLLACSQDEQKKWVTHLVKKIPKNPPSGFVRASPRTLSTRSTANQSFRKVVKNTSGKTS
T2 sequence (Q9UQM7 whole entry): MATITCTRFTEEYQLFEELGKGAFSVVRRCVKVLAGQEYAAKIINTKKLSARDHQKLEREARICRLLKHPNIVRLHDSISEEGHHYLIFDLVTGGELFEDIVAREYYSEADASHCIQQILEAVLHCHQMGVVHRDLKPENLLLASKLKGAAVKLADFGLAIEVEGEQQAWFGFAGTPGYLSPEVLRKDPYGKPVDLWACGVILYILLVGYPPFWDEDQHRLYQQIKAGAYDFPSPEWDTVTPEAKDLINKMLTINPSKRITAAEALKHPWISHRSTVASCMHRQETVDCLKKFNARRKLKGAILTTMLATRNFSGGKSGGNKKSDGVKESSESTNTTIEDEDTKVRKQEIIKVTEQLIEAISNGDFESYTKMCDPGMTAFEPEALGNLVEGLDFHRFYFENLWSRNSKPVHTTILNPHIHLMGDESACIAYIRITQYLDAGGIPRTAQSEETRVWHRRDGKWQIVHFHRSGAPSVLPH
T3 sequence (P00533 25-1210 L861Q): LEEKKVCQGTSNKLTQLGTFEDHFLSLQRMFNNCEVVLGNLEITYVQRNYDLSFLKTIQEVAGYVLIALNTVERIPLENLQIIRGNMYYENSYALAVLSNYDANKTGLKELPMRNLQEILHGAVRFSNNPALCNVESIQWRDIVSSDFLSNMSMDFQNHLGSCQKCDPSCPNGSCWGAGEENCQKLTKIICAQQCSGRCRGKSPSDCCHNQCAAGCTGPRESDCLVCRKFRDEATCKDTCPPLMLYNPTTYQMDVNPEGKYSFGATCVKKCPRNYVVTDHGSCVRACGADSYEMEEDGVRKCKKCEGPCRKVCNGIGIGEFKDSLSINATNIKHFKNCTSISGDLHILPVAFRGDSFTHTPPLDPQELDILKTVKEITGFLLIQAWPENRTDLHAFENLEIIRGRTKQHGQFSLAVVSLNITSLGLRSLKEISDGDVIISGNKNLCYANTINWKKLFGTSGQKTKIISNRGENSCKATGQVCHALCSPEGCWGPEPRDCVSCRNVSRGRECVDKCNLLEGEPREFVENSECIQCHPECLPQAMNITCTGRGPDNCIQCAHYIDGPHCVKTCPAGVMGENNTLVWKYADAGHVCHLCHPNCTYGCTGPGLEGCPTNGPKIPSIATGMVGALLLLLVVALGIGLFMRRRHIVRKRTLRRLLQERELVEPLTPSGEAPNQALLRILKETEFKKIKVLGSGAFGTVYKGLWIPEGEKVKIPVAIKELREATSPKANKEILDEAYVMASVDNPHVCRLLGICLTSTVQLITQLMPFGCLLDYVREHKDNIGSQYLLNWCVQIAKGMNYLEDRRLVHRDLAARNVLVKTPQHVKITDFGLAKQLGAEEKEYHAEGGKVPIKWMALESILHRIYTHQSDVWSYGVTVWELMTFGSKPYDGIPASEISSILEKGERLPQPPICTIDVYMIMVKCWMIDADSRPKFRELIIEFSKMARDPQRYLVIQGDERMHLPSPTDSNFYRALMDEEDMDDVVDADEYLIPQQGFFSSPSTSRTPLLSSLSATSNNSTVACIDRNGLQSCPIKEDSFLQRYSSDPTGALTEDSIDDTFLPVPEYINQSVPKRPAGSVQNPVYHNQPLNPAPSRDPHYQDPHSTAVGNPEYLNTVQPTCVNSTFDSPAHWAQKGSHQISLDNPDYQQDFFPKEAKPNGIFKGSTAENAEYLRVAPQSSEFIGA

Consider `Nc1cc(C(F)(F)F)c(-c2cc(N3CCOCC3)nc(N3CCOCC3)n2)cn1` [Buparlisib], for which the remaining activity at 1 µM in assay [1] was 100%; in assay [2], 100%; in assay [3] it was 88%; in assay [4], 84%; in assay [5] it was 80%; in assay [6] it was 100%. The remaining activity at 1 µM in [7] is 100%; in [8], 100%; in assay [9] it was 90%; in [10], 100%; in assay [11], 86%; in assay [12], 88%. Also, the remaining activity at 10 µM in assay [1] (setting [13]) worked out at 100%; in assay [2] (setting [13]), 100%; in assay [3] (setting [13]) it was 83%; in [4] (setting [13]) it was 100%; in assay [5] (setting [13]), 100%; in [6] (setting [13]), 100%. The remaining activity at 10 µM came to 100% in [7] (setting [13]); 98% in assay [8] (setting [13]); 70% in [9] (setting [13]); 100% in [10] (setting [13]); 80% in [11] (10 µM, read-out: ROCK1 (% of control at 10 µM)); 99% in assay [12] (10 µM, read-out: S6K1 (% of control at 10 µM)).

Take `Cn1c(=O)n(-c2ccc(C(C)(C)C#N)cc2)c2c3cc(-c4cnc5ccccc5c4)ccc3ncc21` [Dactolisib, 2-methyl-2-[4-(3-methyl-2-oxo-8-quinolin-3-yl-2,3-dihydroimidazo[4,5-c]quinolin-1-yl)-phenyl] propionitrile]: the remaining activity at 1 µM in assay [1] was 100%; in [2], 90%; in [4], 78%; in assay [5] it was 67%; in assay [6], 82%; in assay [8] it was 88%. The remaining activity at 1 µM in [9] worked out at 64%; in assay [10] it was 89%; in [11], 52%.

With `COc1ncc(-c2ccc3nccc(-c4ccnnc4)c3c2)cc1NS(=O)(=O)c1ccc(F)cc1F` [Omipalisib], the remaining activity at 1 µM turned out to be 93% in [1]; 100% in assay [2]; 100% in assay [3]; 100% in assay [4]; 88% in [5]; 100% in [6]. The remaining activity at 1 µM in assay [7] was 100%; in assay [8] it was 64%; in [9] it was 100%; in [10] it was 100%; in [11] it was 88%; in assay [12], 100%.

Consider `FC(F)c1nc2ccccc2n1-c1nc(N2CCOCC2)nc(N2CCOCC2)n1` [ZSTK474, 2-(difluoromethyl)-1-[4,6-di(4-morpholinyl)-1,3,5-triazin-2-yl]-1H-benzimidazole], for which the remaining activity at 1 µM in [1] came to 88%; in assay [2], 87%; in assay [3], 100%; in [4], 74%; in assay [5] it was 78%; in [6], 99%. Besides, the remaining activity at 1 µM stood at 100% in [7]; 88% in [8]; 98% in assay [9]; 100% in assay [10]; 75% in [11]; 91% in assay [12].

Source of the values: paper PMC5564600 (Oncotarget, 2017).
